Measured values as given in patent publication US20060281700A1, “SYNERGISTIC MODULATION OF FLT3 KINASE USING AMINOPYRIMIDINES KINASE MODULATORS” (priority 2005, published 2006).

Legend:
[1] = tested on: Baf3-FLT3 cells stimulated with 100 ng/ml FLT ligand; assay: Cell proliferation assay, single agents and FTI/FLT3 inhibitor combinations, Baf3-FLT3; type: cell-based, murine
Experimental: The cell lines that were tested included those that are dependent on FLT3ITD mutant activity for growth (MV4-11 and Baf3-FLT3ITD), FLT3 wt activity for growth (Baf3FLT3) and those that grow independent of FLT3 activity (THP-1). […] Baf3-FLT3 and Baf3-FLT3ITD cell lines were obtained from Dr. Michael Henrich and the Oregon Health Sciences University. The Baf3 FLT3 cell lines were created by stable transfection of parental Baf3 cells (a murine B cell lymphoma line dependent on the cytokine IL-3 for growth) with either wild-type FLT3 or FLT3 containing the ITD insertion in the juxatamembrane domain of the receptor resulting in its constitutive activation. Cells were selected for their ability to grow in the absence of IL-3 and in either the presence of FLT3 ligand (Baf3-FLT3) or independent of any growth factor (Baf3-ITD). […]
Dose responses for the individual compounds alone were determined for each cell line using a standard 72-hour cell proliferation assay (see FIGS. 6.1-6.8). […]
To statistically evaluate the synergy of a FLT3 inhibitor and an FTI in FLT3 dependent cell lines, dosing combinations were evaluated by the method of Chou and Talalay. See Chou T C, Talalay P. (1984) “Quantitative analysis of dose-effect relationships: the combined effects of multiple drugs or enzyme inhibitors.” Adv Enzyme Regul. […] Using this method, multiple FTI and FLT3 combinations were evaluated. […]

[2] = Tolerability in MV4-11 tumor-bearing nude mice (body weight, overt clinical signs); conditions: either agent alone or in combination
Experimental: Female athymic nude mice weighing no less than 20-21 grams were inoculated subcutaneously in the left inguinal region of the thigh with 5×10^6 tumor cells in a delivery volume of 0.2 mL. For regression studies, the tumors were allowed to grow to a pre-determined size prior to initiation of dosing. […] Mice were dosed orally by gavage with vehicle (control group) or compound at various doses twice-daily (b.i.d.) during the week and once-daily (q.d.) on weekends. […] If tumors in the control mice reached ˜10% of body weight (˜2.0 grams), the study was to be terminated. […] During the study, tumor growth was measured three times-a-week (M, W, F) using electronic Vernier calipers. Tumor volume (mm^3) was calculated using the formula […], where L=length (mm) and W=width (shortest distance in mm) of the tumor. Body weight was measured three times-a-week and a loss of body weight >10% was used as an indication of lack of compound tolerability. […]
Female athymic nude mice weighing no less than 20-21 grams were inoculated subcutaneously in the left inguinal region of the thigh with 5×10^6 tumor cells in a delivery volume of 0.2 mL. For regression studies, the tumors were allowed to grow to a pre-determined size prior to initiation of dosing. […] During the study, tumor growth was measured three times-a-week (M, W, F) using electronic Vernier calipers. […]

Cn1cncc1C(N)(c1ccc(Cl)cc1)c1ccc2c(c1)c(-c1cccc(Cl)c1)cc(=O)n2C (single isomer, unassigned; (+)) [Tipifarnib, (+)-6-[amino(4-chlorophenyl)(1-methyl-1H-imidazol-5-yl)methyl]-4-(3-chlorophenyl)-1-methyl-2(1H)-quinolinone]
increase in potency of Tipifarnib with a single sub-IC50 dose of FLT3 inhibitor Compound A ([1]; Baf3-FLT3, Compound A 100 nM): more than 3 fold
IC50 ([1]; Mus musculus, Baf3-FLT3 proliferation, FTI alone or in the combination named): 1.85 nM
overt toxicity ([2]; 9-day treatment): No overt toxicity
overt toxicity ([2]; 16-day treatment): No overt toxicity
